Results published in article PMC9720346, “Suppression of amyloid-β fibril growth by drug-engineered polymorph transformation” (The Journal of Biological Chemistry, 2022).

Tests used:
Aβ42 = details: cited from earlier work
Aβ40 = biological target: T1, Aβ40 (Homo sapiens, UniProt P05067); test: Thioflavin T (ThT) fluorescence assay of Aβ40 fibrillization; format: biochemical; details: 50 μM Aβ40, bexarotene 17 and 50 μM, 35 μM ThT, 40 mM sodium phosphate pH 7.4, 37 °C, ex 442/em 488 nm, 15 h
T1 construct: host or cells: E. coli BL21(DE3)
T1 sequence (P05067 671-711): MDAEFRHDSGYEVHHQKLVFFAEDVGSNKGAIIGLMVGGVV
Experimental: To monitor the evolution of fibrillization and the overall impact of bexarotene, we employed the fluorescence intensity emitted at 488 nm by the dye thioflavin T (ThT) in the presence of Aβ sheets, which is expected to scale the total amyloid mass ([42]).
The stock solution of ThT was prepared by dissolving ThT (Sigma–Aldrich) in ethanol (Decon Labs) and filtering through […] polyethersulfone syringe filter. […] For control experiment, ammonium acetate solution in a volume equivalent to the peptides volume was added to the growth buffer instead of Aβ40 peptides. […] The ThT fluorescence signal was measured at 37 °C (with mixing every 5 min) every 15 min with excitation and emission at 442 and 488 nm, respectively, for a period of 15 h using SpectraMax Gemini EM Microplate Reader (Molecular Devices). The sigmoid curves were obtained by subtracting the […] of the control and normalizing all the data points to their maximum value.
Thioflavin T (ThT) fluorescence assay. […] The concentration was determined by measuring the absorbance at 416 nm using the extinction coefficient of 26.6 mM^-1 cm^-1. […] The ThT fluorescence signal was measured at 37 °C (with mixing every 5 minutes) every 15 minutes with excitation and emission at 442 nm and 488 nm, respectively, for a time period of 15 hours using SpectraMax Gemini EM Microplate Reader (Molecular Devices). […]

Aβ40 peptides = biological target: T2, Aβ40 peptides (Homo sapiens, UniProt P05067); test: Complexation of Aβ40 with bexarotene (UV absorbance titration at 280 nm); format: binding; details: 156 μM Aβ40 in ammonium acetate titrated with 20 aliquots of 142 μM bexarotene; absorbance at 280 nm vs sum of individual absorbances
T2 construct: host or cells: E. coli BL21(DE3)
T2 sequence (P05067 671-711): as above
Experimental: This addition was repeated 20 times.
Complexation of Aβ40 with bexarotene. To determine the extinction coefficient of bexarotene at 280 nm, we measured the absorbance of bexarotene at 14 gradually decreasing concentrations (Fig. S2A). The stock solution of bexarotene (0.2 mM) was diluted in ammonium acetate to achieve the desired concentrations. Then, the correlation between absorbance and bexarotene concentration was plotted and the extinction coefficient was obtained from the slope of the best linear regression fit (ε280 = 10370 ± 83 M^-1 cm^-1).
This addition was repeated 20 times, and at each step, a spectrum was collected using DU 800 Spectrophotometer (Beckman Coulter).

[1] = biological target: T3, Aβ40 fibrils with structure imposed by bexarotene (bexarotene fibrils) (Homo sapiens, UniProt P05067); test: Time-resolved in situ AFM: growth rate of bexarotene fibrils after adding bexarotene; format: biochemical; details: 3 μM Aβ40, 1 μM bexarotene, 27 °C
T3 construct: host or cells: E. coli BL21(DE3)
T3 sequence (P05067 671-711): as above
Experimental: To prepare samples for AFM growth rate measurements, 2 μl of second-generation normal (or bexarotene) fibrils was added to the fibril growth buffer. Urea (Sigma–Aldrich) was also added to the solution, to a final concentration of 1 M, if needed based on the experiments. The diluted fibril solution then was sonicated (6 W output) for 2 min with 15 s intervals on ice and was kept at 27 °C for at least 15 min to equilibrate the temperature. Then Aβ40 peptides were added to the fibril solution at a desired final concentration, and the total volume of the solution was adjusted to 1 ml.
Multimode atomic force microscope (Nanoscope VIII or IV; Bruker) in tapping mode was used to monitor the growth of fibrils. To collect images, 500 μl of the prepared sample was injected into the AFM liquid cell over freshly cut mica (Ted Pella, Inc) attached to a 15 mm metal disk (Ted Pella, Inc), and to avoid any leakage, an O-ring was inserted firmly to the liquid cell. The temperature in the liquid cell reached equilibrium of 27.0 ± 0.1 °C within 15 min, higher than room temperature (ca. 22 °C), because of heating by the AFM scanner and laser ([69], [70], [71]). Height, amplitude, and phase images were collected in image sizes ranged from 2 μm × 2 μm to 8 μm × 8 μm, and scan rates range between 3 and 3.5 s^−1 in most images. […]

[2] = biological target: T4, Aβ40 fibrils nucleated in the absence of bexarotene (normal fibrils) (Homo sapiens, UniProt P05067); test: Time-resolved in situ AFM: growth rate of normal Aβ40 fibrils after adding bexarotene; format: biochemical; details: 3 μM Aβ40, bexarotene 0.1, 0.5 and 1.0 μM, 27 °C, about 30 measurements per concentration
T4 construct: host or cells: E. coli BL21(DE3)
T4 sequence (P05067 671-711): as above
Experimental: We deposit fibrils preformed in the absence of bexarotene on mica and monitor the growth of the fibril tips along the fibril axis with respect to immobile reference points (Fig. 2B) in Aβ40 solutions with known concentrations. We evaluate the fibril growth rate as the slope of the time correlation of the fibril tip displacement (Fig. 2C) ([41]). […] Fibril growth comprises association of peptide chains to fibril tips.
To prepare samples for AFM growth rate measurements, 2 μl of second-generation normal (or bexarotene) fibrils was added to the fibril growth buffer. Urea (Sigma–Aldrich) was also added to the solution, to a final concentration of 1 M, if needed based on the experiments. The diluted fibril solution then was sonicated (6 W output) for 2 min with 15 s intervals on ice and was kept at 27 °C for at least 15 min to equilibrate the temperature. Then Aβ40 peptides were added to the fibril solution at a desired final concentration, and the total volume of the solution was adjusted to 1 ml. […]
To study the effect of bexarotene on normal and bexarotene fibril growth rates (Figs. 2D and 5D), first, a fibril suspension at 3 μM Aβ40 peptide concentration was prepared as described previously, without bexarotene, and the fibril growth was monitored with AFM in tapping mode for 15 to 30 min. […]

## C=C(c1ccc(C(=O)O)cc1)c1cc2c(cc1C)C(C)(C)CCC2(C)C [bexarotene]
Aβ42
  binding of bexarotene to Aβ42: undetectable binding
Aβ40
  initial period of negligible ThT fluorescence (fibril nucleation delay): suppresses Aβ40 fibril nucleation
Aβ40 peptides
  binding of bexarotene to Aβ40 monomers (complex formation): does not perceptibly bind
[1]
  growth rate of bexarotene fibrils after adding bexarotene: does not inhibit or promote the growth
[2]
  average growth rate of normal fibrils after adding bexarotene: does not modify the average growth rates
